Square brackets hold non-standard residues; d marks the D form. Ends that are not written are not given here. Aib = CC(C)(N)C(=O)O
What was measured:
hIAPP1-37 = target: T1, hIAPP1-37 (Homo sapiens, UniProt P10997); test: Thioflavin T fluorescence assay of hIAPP fibrillization (sodium acetate buffer); assay type: biochemical; settings: 4 μM hIAPP1-37, 40 μM inhibitor, 10 mM sodium acetate pH 6.5
T1 construct: purchased CalBiochem (La Jolla Calif., USA)
T1 sequence (P10997 34-70 limits assumed): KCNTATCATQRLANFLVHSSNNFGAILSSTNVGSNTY
Method: Thioflavin T fluorescence assay—hIAPP fibrillization was monitored by Thioflavin T dye binding assay. hIAPP1-37 stock solution was diluted to a final concentration of 4 μM in 10 mM sodium acetate buffer (pH 6.5) with or without inhibitors (40 μM), and a final concentration of HFIP of 1% (vol). Immediately after dilution, sample was centrifuged for 20 minutes in 20,000×g at 4° C. and the supernatant fraction was used for fluorescence measurements. In every measurement ThT was added to a 1 ml sample at a final concentration of 3 μM and measurements were effected by using Perkin-Elmer (excitation 450 nm, 2.5 nm slit; emission 480 nm 10 nm slit). Background was subtracted from all samples.

[1] = target: T2, full-length IAPP polypeptide (Homo sapiens, UniProt P10997); test: ThT fluorescence assay of IAPP fibril formation with inhibitory peptides (Tris buffer); assay type: biochemical; settings: for inhibition of IAPP aggregation (ThT endpoint): 4 μM IAPP, 40 μM inhibitory peptide, 142 hours of incubation
T2 construct: purchased CalBiochem (La Jolla Calif., USA)
T2 sequence (P10997 34-70 limits assumed): T1 sequence (P10997 34-70 limits assumed)
Method: The ability of amyloidogenic peptides of IAPP, identified according to the teachings of the present invention to inhibit amyloid formation by the full-length polypeptide was tested by the addition of beta-breaker proline residues to the recognition sequence as set forth in the peptide sequence NFLVHPP (SEQ ID NO: 45). The degree of amyloid fibrils formation with and without the inhibitor was assessed using Thioflavin T (ThT) as molecular indicator. The degree of fluorescence of the ThT dye is directly correlated with the amount of amyloid fibrils in the solution [LeVine H 3rd. (1993) Protein Sci. 2:404-410. IAPP solutions ([…] hIAPPin 10 mM Tris buffer pH 7.2), were incubated in the presence or absence of 40[…] of the modified peptide (i.e., NFLVHPP) at room temperature. Fibril formation was determined by a ten fold dilution of the solutions into a solution that contained 3[…] thioflavin T (ThT) in 50 mM sodium phosphate pH 6.0 and determination of fluorescence at 480 nm with excitation at 450 nm using a LS50B spectroflurimeter (Perkin Elmar, Wellesley, Mass.). As a control 10 mM Tris buffer pH 7.2 were diluted into the ThT solution and fluorescence was determined as described.
The degree of amyloid fibril formation with and without the Aib inhibitor was assessed using thioflavin T (ThT) as molecular indicator. The degree of fluorescence of the ThT dye is directly correlated with the amount of amyloid fibrils in the solution [LeVine H 3rd. (1993) Protein Sci. 2:404-410].
[…]IAPP solutions (4 μM peptide in 10 mM Tris buffer pH 7.2), were incubated with or without 40 μM of the various peptide solutions at room temperature. Fibril formation was assessed by a ten fold diluation of the solutions into a solution which contained 3 μM thioflavin T (ThT) in 50 mM sodium phosphate pH 6.0 and determination of fluorescence at 480 nm with excitation at 450 nm using a Perkin Elmar LS50B spectroflurimeter. As a control a 10 mM Tris buffer pH 7.2 was diluted into the ThT solution and fluorescence was determined as described. […]

inhibition of IAPP fibrillization (ThT fluorescence at plateau) (hIAPP1-37) | ThT fluorescence of IAPP in the presence of the inhibitory peptide ([1]; hIAPP in 10 mM Tris pH 7.2 with or without modified peptide, room temperature) | Substance | inhibition of IAPP aggregation (ThT endpoint) [1]
effective inhibition |  | D-Tyr-Aib [EG16] | significant inhibitory effect on IAPP aggregation
 |  | Aib-Phe-Phe ([Aib]-Phe-Phe) [EG12] | best inhibitor
 | significant increase in fluorescence | NFLVHPP | 

Source: patent publication US8012929B2, “Peptides directed for diagnosis and treatment of amyloid-associated diseases” (Tel Aviv University Future Technology Development L.P., priority 2002, dated 2011)
